Values quoted from earlier work, collected in patent US12589118B2, “Method of prolonging the lifespan of patients with cerebral autosomal dominant arteriopathy with subcortical infarcts and leukoencephalopathy (CADASIL) using a cerebrolysin® preparation” (EVER NEURO PHARMA GMBH, priority 2017, dated 2026).

How the values were obtained:
[1] = transcranial Doppler
[2] = transcranial Doppler; remark: listed apart in the source
[3] = 200-400 mg bid in 24 months

Structure (SMILES): CC(C)c1c(C(=O)Nc2ccccc2)c(-c2ccccc2)c(-c2ccc(F)cc2)n1CC[C@@H](O)C[C@@H](O)CC(=O)O [Atorvastatin]
- effect on cerebral blood flow [1]: no effects

Structure (SMILES): N=C(N)NCCC[C@H](N)C(=O)O [L-arginine]
- vasoreactivity [2]: induced-vasoreactivity

Structure (SMILES): C[C@H](O)[C@H](O)[C@H]1CNc2nc(N)[nH]c(=O)c2N1 [Sapropterin]
- primary end-point: mean difference in reactive hyperaemia index (improvement of peripheral vasoreactivity) [3]: not significant
